# Patent US20100143346A1, “Treatment of Macular Degeneration” (priority 2006, published 2010)
# Legend:
# [1] = test system: gut vessel plexus; assay: Zebrafish angiogenesis assay: scoring of the gut vessel plexus in transgenic GFP fish; assay type: in vivo, Zebrafish (Danio rerio); parameters: Inhibition of gut vessel formation: scale not given here; conditions: for Inhibition of gut vessel formation: transgenic GFP fish incubated 24 h.p.f. to 5 d.p.f., gut vessel plexus scored by microscopy; for concentrations showing concentration-dependent inhibition of vessels: gut vessels
# Description: Zebrafish (Danio rerio) are ideal organisms for the investigation of blood vessel growth because they are transparent in the embryonic and larval stages of development so that blood vessels marked with a fluorescent marker can clearly be seen in vivo in the live animal. Zebrafish blood vessel development is well characterised and vessels can be visualised by microangiography or by expressing green fluorescent protein in blood vessels (Isogai et al. (2001) Dev Biol 230(2): 278-301; Covassin et al. (2006) Proc Natl Acad Sci USA 103(17): 6554-9). Zebrafish are also ideal vertebrate organisms in which to screen for active small molecules because the larvae can be treated with compound simply by immersion of the fish in compound solution in wells of a standard multi-well plate (12, 24 or 96-wells).
# Expression of the zebrafish PR can be detected as early as 48 hours post fertilisation and an assay was therefore developed to investigate the effects of compounds on blood vessel formation in zebrafish after this time. Previous studies on inhibition of blood vessel growth have focussed on formation of intersegmental vessels (Serbedzija et al. (1999) Angiogenesis 3(4): 353-9; Parng at al. (2002) Assay Drug Dev Technol 1(1 Pt 1): 41-8) but these particular vessels are specified and begin to form prior to the time when the PR is expressed in the zebrafish embryo. Accordingly, later-developing vessels around the gut, the vascular plexus of the mid gut which branches from the subintestinal vein and supraintestinal artery, were monitored.
# A similar method was developed for screening of compounds using a line of fish that express GFP under control of an enhancer that drives expression in blood vessels, spinal cord and eyes. The fish are a cross between the et19.1 enhancer:Gal4 line (Scott et al. (2007) Nat Methods 4(4): 323-6) and a UAS:GFP line made in-house in a TL zebrafish background. Transgenic zebrafish embryos or larvae expressing GFP in the blood vessel walls were treated with test compounds by immersion in aqueous medium containing the compound at the required concentration, for a period of one or more days. At the end of the incubation period the fish were immobilised on their sides and the organisation and structure of the vasculature was visualised by fluorescent microscopy, which is possible because of the transparency of zebrafish larvae. The vessels can be identified by comparison with the online Interactive Atlas of Zebrafish Vascular Anatomy (Isogai et al. (2001) Dev Biol 230(2): 278-301).
# Vessels such as the dorsal aorta, posterior cardinal vein, caudal artery, caudal vein, intersegmental vessels, dorsal longitudinal anastomotic vessels and the gut vessel plexus were assessed in each fish and compared to the control group. […] A subjective score was given to the fore/mid gut vessel plexus (by assessment of the number of visible vessels and extent of spread of the plexus), ranging from “3” for a normal extensively vascularised gut, to “0” for a complete absence of any branching of vessels around the gut. The intestinal vessel plexus forms between 3 and 5 days post fertilisation (d.p.f.) and so these assays were usually scored at 5 d.p.f. The vessels could also be quantified by digital photography and quantification of fluorescence levels or number of vessels in the region of interest.
# Assays using Tg 043/050 uas:GFP+/−enhancer:gal4+/−×TL (“panretinal” enhancer) fish, incubated with various compounds (see Table below) from 24 h.p.f. to 5 d.p.f. (unless otherwise stated), then scoring the extent of the gut vessel plexus by microscopy. A score of 3 represents a good, fully formed gut vessel plexus, with 20 or more branched vessels; 2 represents as slightly less well formed plexus with 10-19 vessels; 1 represents a poorly formed plexus with 1-9 vessels; 0 represents a complete absence of visible gut vessels. Each of the compounds was tested in a 24 hour MTC assay in the TL strain of wild type fish (24-48 h.p.f.). […]
# [2] = test system: TL strain of wild type fish; assay: 24 hour MTC assay in the TL strain of wild type fish; assay type: in vivo, Zebrafish (Danio rerio); conditions: 24-48 h.p.f.
# Method: Assays using Tg 043/050 uas:GFP+/−enhancer:gal4+/−×TL (“panretinal” enhancer) fish, incubated with various compounds (see Table below) from 24 h.p.f. to 5 d.p.f. (unless otherwise stated), then scoring the extent of the gut vessel plexus by microscopy. A score of 3 represents a good, fully formed gut vessel plexus, with 20 or more branched vessels; 2 represents as slightly less well formed plexus with 10-19 vessels; 1 represents a poorly formed plexus with 1-9 vessels; 0 represents a complete absence of visible gut vessels. Each of the compounds was tested in a 24 hour MTC assay in the TL strain of wild type fish (24-48 h.p.f.). The MTC from this assay was used as the highest concentration for assays in the transgenic fish, with half-log intervals.
# [3] = cited from earlier work
Structure (SMILES),Inhibition of gut vessel formation [1],MTC [2] [µM],other results
CC1(C)OC(=O)Nc2ccc(-c3cc(F)cc(Cl)c3)cc21 [Wyeth 4g],++,3,–
"CC#C[C@]1(O)CC[C@H]2[C@@H]3CCC4=CC(=O)CCC4=C3[C@@H](c3ccc(N(C)C)cc3)C[C@@]21C [RU486, 17beta-hydroxy-11-beta-(4-dimethylaminophenyl)-17alpha-(prop-1-ynyl)-estra-4,9-dien-3-one]",+++,10 to 30,inhibition of gut vessel formation (in words) [1]: dose-dependent; rescue of vessel inhibition by progesterone ([1]; 10 μM of each (RU486 and progesterone)): rescued by progesterone; plasma half life ([3]; after oral dosing): 20 to 30 h; time to peak plasma levels ([3]; after oral dosing): 1 to 2 h; oral bioavailability ([3]; oral): 40-70%
CC1(C)OC(=O)Nc2ccc(-c3cc(F)cc(C#N)c3)cc21 [Wyeth 4h],++,30,concentration of maximal inhibition of gut vessels ([1]; data not shown): 30 µM
Cc1cc(C)c(/C=C2\C(=O)Nc3ccccc32)[nH]1 [SU5416],–,–,inhibition of gut vessel formation (in words) [1]: vessel formation was inhibited
CC1=CC(C)(C)Nc2ccc(-c3cccc(C#N)c3)cc21 [LG120753],+,3,concentrations showing concentration-dependent inhibition of vessels [1]: 0.3 to 3 µM
CC1=CC(C)(C)Nc2ccc(-c3csc(C#N)c3)cc21 [LG121046],++,3 to 10,–
COC[C@]1(OC)CC[C@H]2[C@@H]3CCC4=CC(=O)CCC4=C3[C@@H](c3ccc(/C=N/O)cc3)C[C@@]21C [Asoprisnil],+,10,–
CC#CC1(O)CCC2C3CCC4=CC(=O)CCC4=C3C(c3ccc(NC)cc3)CC21C (centres unmarked) [RU42633],+++,30,"concentration of best inhibition of gut vessels ([1]; concentration response curves, 1-5 dpf): 30 µM"
CC#CC1(O)CCC2C3CCC4=CC(=O)CCC4=C3C(c3ccc(N)cc3)CC21C (centres unmarked) [RU42848],+,100,–
CC1(C)OC(=O)Nc2ccc(-c3ccc(F)c(Cl)c3)cc21 [Wyeth 4j],+,1 to 3,–
CN(C)c1ccc(C2CC3(C)C(CCC3(O)C#CCO)C3CCC4=CC(=O)CCC4=C23)cc1 (centres unmarked) [RU42698],++,100,concentrations showing concentration-dependent inhibition of vessels [1]: 30 to 100 µM
CC1(C)OC(=O)Nc2ccc(-c3ccc(F)c(C#N)c3)cc21 [Wyeth 6],+,100,–
